Reference: patent publication US20030064385A1, “Genes expressed in breast cancer as prognostic and therapeutic targets” (priority 2001, published 2003)

System: primary invasive breast cancer
Test: Clinical tumor response (WHO criteria) in randomized Phase III neoadjuvant trial of letrozole versus tamoxifen; patients with profiled biopsies
Type: in vivo, human
Conditions: clinical outcome of patients with profiled pre-treatment biopsies; postmenopausal women; response by palpation at 4 months
Excerpt: Definitions of Objective Response Used in the Letrozole (FEMARA™) vs. Tamoxifen Comparison Study
1. Complete Response (CR): The disappearance of all known disease, determined by 2 observations not less than 4 weeks apart.
2. Partial Response (PR): A 50% or more decrease in total tumor size of the lesions which have been measured to determine the effect of therapy by 2 observations not less than 4 weeks apart. In addition there can be no appearance of new lesions or progression of any lesion.
4. Progressive Disease (PD): A 25% or more increase in the size of one or more measurable lesions, or the appearance of new lesions.
Clinical Response Assessment
The primary efficacy variable was tumor response, assessed by clinical examination using World Health Organization (WHO) criteria (see, WHO Handbook for Reporting Results of Cancer Treatment). It was defined as the percentage of patients in each treatment group with a CR or PR as determined clinically in the breast by palpation at 4 months. Possible responses were CR, PR, NC, PD or not assessable/not evaluable (NA/NE). Palpable ipsilateral axillary lymph nodal involvement downgraded a clinical CR in tumor. Other factors were also considered such the percentage of patients who underwent breast-conserving surgery (quadrantectomy/lumpectomy) instead of mastectomy. Patients who became inoperable, or who remained inoperable at 4 months, were counted as treatment failures.
Twenty-one RNA samples were extracted from 14-gauge needle core biopsies collected before initiation of neoadjuvant endocrine therapy from patients enrolled in a randomized Phase III trial of letrozole (FEMARA™, Novartis Pharma, Basal Switzerland) versus tamoxifen for postmenopausal women with primary invasive breast cancer ineligible for breast conserving surgery. RNA was extracted from an additional 30 primary breast adenocarcinomas collected in Sweden, one additional ESR1+breast tumor surgical biopsy, two HUVEC samples, two samples from glioblastoma cell line U373-MG and one MCF7 sample using Trizol (Life Technologies, Gaithersburg, Md.). The clinical samples were collected after informed consent had been obtained according to protocols approved by local ethics committees. RNA was purchased for two samples, an infiltrating Stage III duct carcinoma (Ambion, Austin, Tex.) and a pool of two normal breast tissues (Clontech, Palo Alto, Calif.). The total number of samples prepared was 59 including 53 breast cancer biopsies and one pooled normal breast sample. Total RNA was purified using QIAGEN RNEASY™ columns (Qiagen, Valencia, Calif.), processed and hybridized to the HUGENE™ FL 6800 Array (Affymetrix, Santa Clara, Calif.), as described by Lockhart et al., Nat. Biotechnol., Vol. 14, pp. 1675-1680 (1996).
In another aspect of the invention 136 breast biopsies from 53 patients were obtained. RNA was extracted from 116 biopsies. Expression profiles were generated for 43 biopsies from 35 patients. Predictive markers of endocrine therapy responsiveness in breast tumors were identified. The breakdown of the profiled biopsies from the pre-letrozole (FEMARA™) treatments and the patient's clinical outcome was as follows: four patients with CR, nine patients with PR, four patients with NC and four patients with PD.
For the group treated with tamoxifen there were no patients in the CR category, 10 patients with PR, seven patients with NC and four patients with PD.

Structure (SMILES) | patients with CR (complete response) | patients with NC (no change) | patients with PD (progressive disease) | patients with PR (partial response)
N#Cc1ccc(C(c2ccc(C#N)cc2)n2cncn2)cc1 [letrozole] | four | four | four | nine
CC/C(=C(\c1ccccc1)c1ccc(OCCN(C)C)cc1)c1ccccc1 [tamoxifen] | no patients | seven | four | 10 patients
